# Test results reported in PubChem BioAssay AID192 (DTP/NCI, 2004).
# Where “and” joins values, the source holds several entries; their conditions need not be identical. Equal entries are not always repeated. Toxic doses and inconclusive results are not listed.
# Tested on: BDF1 mice, B16 melanoma ip, median survival T/C
# Experiment: NCI In Vivo Anticancer Drug Screen. Data for tumor model B16 Melanoma (intraperitoneal) in B6D2F1 (BDF1) mice
# Conditions: endpoint: median survival time, higher = longer survival
# How it was run: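 Mice with transplantable tumors; drug vs vehicle groups; endpoint survival or tumor size; value = T/C.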
# [1] = dose: 25.0 mg/kg/injection, schedule: Q01DX009 (ip), vehicle: saline with Tween-80
# [2] = dose: 100.0 mg/kg/injection, schedule: Q01DX009 (ip), vehicle: Klucel (hydroxypropylcellulose) (HPC)
# [3] = dose: 200.0 mg/kg/injection, schedule: Q01DX009 (ip), vehicle: Klucel (hydroxypropylcellulose) (HPC)
# [4] = dose: 25.0 mg/kg/injection, schedule: Q01DX009 (ip), vehicle: Klucel (hydroxypropylcellulose) (HPC)
# [5] = dose: 50.0 mg/kg/injection, schedule: Q01DX009 (ip), vehicle: Klucel (hydroxypropylcellulose) (HPC)
# [6] = dose: 12.5 mg/kg/injection, schedule: Q01DX009 (ip), vehicle: saline
# [7] = dose: 25.0 mg/kg/injection, schedule: Q01DX009 (ip), vehicle: saline
# [8] = dose: 50.0 mg/kg/injection, schedule: Q01DX009 (ip), vehicle: saline
# [9] = dose: 100.0 mg/kg/injection, schedule: Q01DX009 (ip), vehicle: saline
# [10] = dose: 3.12 mg/kg/injection, schedule: Q01DX009 (ip), vehicle: Klucel (hydroxypropylcellulose) (HPC)
# [11] = dose: 6.25 mg/kg/injection, schedule: Q01DX009 (ip), vehicle: Klucel (hydroxypropylcellulose) (HPC)
# [12] = dose: 12.5 mg/kg/injection, schedule: Q01DX009 (ip), vehicle: Klucel (hydroxypropylcellulose) (HPC)
smiles,measurement,setting,value
O=C1[O][Hg][c]2cccc3cccc1c23,T/C,"dose: 1.65 mg/kg/injection, schedule: Q04DX003 (ip), vehicle: saline with Tween-80",106 % of control
same,T/C,"dose: 2.5 mg/kg/injection, schedule: Q01DX009 (ip), vehicle: saline with Tween-80",88 % of control
same,T/C,"dose: 2.5 mg/kg/injection, schedule: Q04DX003 (ip), vehicle: saline with Tween-80",100 % of control
same,T/C,"dose: 5.0 mg/kg/injection, schedule: Q01DX009 (ip), vehicle: saline with Tween-80",86 % of control
same,T/C,"dose: 10.0 mg/kg/injection, schedule: Q04DX003 (ip), vehicle: saline with Tween-80",123 % of control
CC(=O)NC(CCC(=O)C=[N+]=N)C(=O)O (configuration not stated),T/C,"dose: 0.01 mg/kg/injection, schedule: Q01DX009 (ip), vehicle: water",113 % of control
same,T/C,"dose: 0.05 mg/kg/injection, schedule: Q01DX009 (ip), vehicle: water",102 % of control
same,T/C,"dose: 0.1 mg/kg/injection, schedule: Q01DX009 (ip), vehicle: other",106 % of control
same,T/C,"dose: 0.1 mg/kg/injection, schedule: Q01DX009 (ip), vehicle: water",86 % of control
same,T/C,"dose: 0.2 mg/kg/injection, schedule: Q01DX009 (ip), vehicle: other",90 % of control
same,T/C,"dose: 10.0 mg/kg/injection, schedule: Q04DX003 (ip), vehicle: other",109 % of control
same,T/C,"dose: 15.0 mg/kg/injection, schedule: Q04DX003 (ip), vehicle: water",123 % of control
same,T/C,"dose: 20.0 mg/kg/injection, schedule: Q04DX003 (ip), vehicle: other",100 % of control
same,T/C,"dose: 30.0 mg/kg/injection, schedule: Q04DX003 (ip), vehicle: water",121 % of control
same,T/C,"dose: 40.0 mg/kg/injection, schedule: Q04DX003 (ip), vehicle: other",106 % of control
same,T/C,"dose: 60.0 mg/kg/injection, schedule: Q04DX003 (ip), vehicle: water",118 % of control
CC1=CCC(C(C)(C)c2ccc(O)cc2)CC1 (configuration not stated),T/C,"dose: 6.25 mg/kg/injection, schedule: Q01DX009 (ip), vehicle: saline with Tween-80",96 % of control
same,T/C,"dose: 12.5 mg/kg/injection, schedule: Q01DX009 (ip), vehicle: saline with Tween-80",105 % of control
same,T/C,[1],102 % of control and 106 % of control
COc1cc2ccc3cnccc3c2cc1OC,T/C,"dose: 25.0 mg/kg/injection, schedule: Q01DX009 (ip), vehicle: water",99 % of control
same,T/C,"dose: 50.0 mg/kg/injection, schedule: Q01DX009 (ip), vehicle: water",91 % of control
same,T/C,"dose: 100.0 mg/kg/injection, schedule: Q01DX009 (ip), vehicle: water",98 % of control
same,T/C,"dose: 200.0 mg/kg/injection, schedule: Q01DX009 (ip), vehicle: water",88 % of control
COc1ccc(N=C(N)NC#N)cc1,T/C,[2],105 % of control
same,T/C,[3],99 % of control
O=C1C(NC(=O)C2CCCCC2)=C(N2CC2)C(=O)C(NC(=O)C2CCCCC2)=C1N1CC1,T/C,[4],109 % of control
same,T/C,[5],102 % of control
COc1ccc(Cl)cc1NC(=O)Nc1ccc(Cl)c(Cl)c1,T/C,"dose: 18.75 mg/kg/injection, schedule: Q01DX009 (ip), vehicle: Klucel (hydroxypropylcellulose) (HPC)",96 % of control
same,T/C,"dose: 37.5 mg/kg/injection, schedule: Q01DX009 (ip), vehicle: Klucel (hydroxypropylcellulose) (HPC)",95 % of control
same,T/C,"dose: 75.0 mg/kg/injection, schedule: Q01DX009 (ip), vehicle: Klucel (hydroxypropylcellulose) (HPC)",90 % of control
CC(C)Cc1ccc(C(=O)O)cc1,T/C,"dose: 75.0 mg/kg/injection, schedule: Q04DX003 (ip), vehicle: Klucel (hydroxypropylcellulose) (HPC)",102 % of control
same,T/C,"dose: 150.0 mg/kg/injection, schedule: Q04DX003 (ip), vehicle: Klucel (hydroxypropylcellulose) (HPC)",105 % of control
same,T/C,"dose: 300.0 mg/kg/injection, schedule: Q04DX003 (ip), vehicle: Klucel (hydroxypropylcellulose) (HPC)",111 % of control
C=C1C(O)C2(O)OCC34C(CC5C(C)=CC(=O)C(O)C5(C)C23)OC(=O)C(OC(=O)C(C)(O)CC)C14 (configuration not stated),T/C,"dose: 0.06 mg/kg/injection, schedule: Q01DX009 (ip), vehicle: saline + alcohol",109 % of control
same,T/C,"dose: 1.0 mg/kg/injection, schedule: Q01DX009 (ip), vehicle: saline + alcohol",163 % of control
CCCCCCCCCCN1CCC(N2CCCCC2)CC1,T/C,[6],91 % of control
same,T/C,[7],93 % of control
same,T/C,[8],98 % of control
same,T/C,[9],87 % of control
CO[C@H](C)[C@@](O)(C(=O)OCC1=CCN2CCC[C@@H]12)C(C)C,T/C,"dose: 10.0 mg/kg/injection, schedule: Q01DX009 (ip), vehicle: saline",114 % of control
same,T/C,"dose: 20.0 mg/kg/injection, schedule: Q01DX009 (ip), vehicle: saline",104 % of control
same,T/C,"dose: 40.0 mg/kg/injection, schedule: Q01DX009 (ip), vehicle: saline",100 % of control
same,T/C,"dose: 80.0 mg/kg/injection, schedule: Q01DX009 (ip), vehicle: saline",95 % of control
CC(N)CCC(C)(C)O (configuration not stated),T/C,[1],102 % of control
same,T/C,"dose: 50.0 mg/kg/injection, schedule: Q01DX009 (ip), vehicle: saline with Tween-80",105 % of control
same,T/C,"dose: 100.0 mg/kg/injection, schedule: Q01DX009 (ip), vehicle: saline with Tween-80",107 % of control
Nc1cc(NC(=O)c2ccc(Cl)cc2)ccc1S(=O)(=O)O,T/C,[10],94 % of control
same,T/C,[11],99 % of control
same,T/C,[12],96 % of control
same,T/C,[4],98 % of control
same,T/C,[5],98 % of control
Nc1cc2[nH]cnc2c(=O)[nH]1,T/C,"dose: 12.5 mg/kg/injection, schedule: Q01DX009 (ip), vehicle: suspension in saline",88 % of control
same,T/C,"dose: 18.8 mg/kg/injection, schedule: Q01DX009 (ip), vehicle: saline",102 % of control
same,T/C,[7],92 % of control
same,T/C,"dose: 25.0 mg/kg/injection, schedule: Q01DX009 (ip), vehicle: suspension in saline",95 % of control
same,T/C,"dose: 37.5 mg/kg/injection, schedule: Q01DX009 (ip), vehicle: saline",102 % of control
same,T/C,"dose: 50.0 mg/kg/injection, schedule: Q01DX009 (ip), vehicle: suspension in saline",94 % of control
same,T/C,"dose: 75.0 mg/kg/injection, schedule: Q01DX009 (ip), vehicle: saline",107 % of control
same,T/C,"dose: 100.0 mg/kg/injection, schedule: Q01DX009 (ip), vehicle: suspension in saline",95 % of control
same,T/C,"dose: 150.0 mg/kg/injection, schedule: Q01DX009 (ip), vehicle: saline",107 % of control
same,T/C,"dose: 200.0 mg/kg/injection, schedule: Q01DX009 (ip), vehicle: suspension in saline",106 % of control
CN(C)C(=O)C1(c2ccc(Cl)cc2)CCN(CCCC(=O)c2ccc(F)cc2)CC1,T/C,[12],94 % of control
same,T/C,[4],94 % of control
same,T/C,[5],97 % of control
CN(C)c1n[nH]c(N)n1,T/C,[6],91 % of control
same,T/C,[7],102 % of control
same,T/C,[8],95 % of control
same,T/C,[9],96 % of control
same,T/C,"dose: 200.0 mg/kg/injection, schedule: Q01DX009 (ip), vehicle: saline",102 % of control
same,T/C,"dose: 400.0 mg/kg/injection, schedule: Q01DX009 (ip), vehicle: saline",104 % of control
CCN(CC)Cc1ccccn1,T/C,[7],100 % of control
same,T/C,[8],97 % of control
same,T/C,[9],100 % of control
CC(COC(=O)c1ccccc1)(COC(=O)c1ccccc1)COC(=O)c1ccccc1,T/C,[2],110 % of control
same,T/C,[3],107 % of control
same,T/C,"dose: 400.0 mg/kg/injection, schedule: Q01DX009 (ip), vehicle: Klucel (hydroxypropylcellulose) (HPC)",100 % of control
C1CC[N-]CC1.[Cl][Pt+2][Cl].[NH-]C1CC1,T/C,"dose: 3.12 mg/kg/injection, schedule: Q01DX009 (ip), vehicle: water",105 % of control
same,T/C,"dose: 3.13 mg/kg/injection, schedule: Q01DX009 (ip), vehicle: water",151 % of control
same,T/C,"dose: 6.25 mg/kg/injection, schedule: Q01DX009 (ip), vehicle: water",152 % of control
same,T/C,"dose: 12.5 mg/kg/injection, schedule: Q01DX009 (ip), vehicle: water",119 % of control
CCCCC1(CC)COC(C)(c2ccccc2)OC1 (configuration not stated),T/C,"dose: 75.0 mg/kg/injection, schedule: Q01DX009 (ip), vehicle: saline with Tween-80",108 % of control
same,T/C,"dose: 150.0 mg/kg/injection, schedule: Q01DX009 (ip), vehicle: saline with Tween-80",106 % of control
same,T/C,"dose: 300.0 mg/kg/injection, schedule: Q01DX009 (ip), vehicle: saline with Tween-80",98 % of control
CCCCOc1ccc(OCCCCCCCCCC[N+](C)(C)C)cc1,T/C,"dose: 1.56 mg/kg/injection, schedule: Q01DX009 (ip), vehicle: Klucel (hydroxypropylcellulose) (HPC)",98 % of control
same,T/C,[10],96 % of control
same,T/C,[11],96 % of control
same,T/C,[12],93 % of control
